Experiment [1] relates to L. monocytogenes 149. Put plainly: MIC for planktonic cell growth (A625nm). Format: cell-based, Listeria monocytogenes. The following applies: ≥80% inhibition, 24 h. On the procedure:
(§1) Ten concentrations of NAC, RLs, and UA were tested to determine the minimum inhibitory concentration for planktonic growth, and subsequently, the six highest concentrations were applied on preformed biofilms to evaluate the biofilm eradication ability of the compounds. MIC was defined as the lowest substance concentration able to inhibit at least 80% of microbial growth (MICPC80 for planktonic cells, MICBC80 for further growth of biofilm cells), inhibit 80% of metabolic activity (MICBM80 for biofilm metabolic activity, MICMPB80 for metabolic activity of preformed biofilm), prevent biofilm formation by at least 80% (MICBF80 for biofilm formation), or reduce a preformed biofilm by at least 80% (MICBR80 for biofilm reduction). The results of MICs are summarized in Table 1 (planktonic cells) and Table 2 (biofilm-associated cells).
(§2) The determination of MICs was performed according to Chlumsky et al.. Briefly, 96-well flat-bottomed microtiter plates were inoculated with 75 µL (for biofilm formation) or 100 µL (for preformed biofilm) of bacterial suspension (A625nm 0.08 to 0.1) in technical triplicates and were then carefully mixed with the dilution series of the test substances (24 h cultivation at 25 °C for S. Infantis, 37 °C for other strains) or were directly cultivated to preform biofilms (18 h). For a positive control of bacterial growth, the inoculum was mixed with a pure sterile medium. […] To evaluate planktonic cells growth (MICPC80) and further growth of biofilm cells (MICBC80), the optical density of the content of the microtiter plates was measured spectrophotometrically at 625 nm before and after 24 h (for biofilm formation) of cultivation or before and after additional 20 h incubation with the tested compound (for preformed biofilm). […] To evaluate the inhibition of biofilm formation (MICBF80) and reduction in preformed biofilms (MICBR80), biomass was quantified using crystal violet staining, and its metabolic activity (MICBM80 and MICMPB80) was estimated by using the MTT (thiazyl tetrazolium bromide, Sigma-Aldrich, USA) reduction assay, both measured spectrophotometrically at 595 nm.
(§3) All inhibitions were calculated using the formula of Chlumsky et al. below (Equation (1)):(1) A625(595)nm inhibition (%)=A625(595)nm (control) – A625(595)nm(natural substance)/A625(595)nm (control)× 100 where A625(595)nm (control) is the absorbance of bacterial suspension/biofilm itself, and A625(595)nm(natural substance) is the absorbance of the bacterial suspension/biofilm with the added natural substance (NAC, RLs, and UA).
(§4) When the minimum inhibitory concentration could not be determined, the MIC was established as >the highest tested concentration for NAC, RLs, and UA.

In experiment [2] the test system is L. monocytogenes 164. Put plainly: MIC for planktonic cell growth (A625nm). Format: cell-based, Listeria monocytogenes. The following applies: ≥80% inhibition, 24 h. On the procedure:
as §1, §2, §3, §4

In experiment [3] the test system is E. coli 683/17. In words: MIC for planktonic cell growth (A625nm). In kind it is cell-based, Escherichia coli. Conditions: for MICPC80: ≥80% inhibition, 24 h. On the procedure: as §1
(§5) The determination of MICs was performed according to Chlumsky et al.. Briefly, 96-well flat-bottomed microtiter plates were inoculated with 75 µL (for biofilm formation) or 100 µL (for preformed biofilm) of bacterial suspension (A625nm 0.08 to 0.1) in technical triplicates and were then carefully mixed with the dilution series of the test substances (24 h cultivation at 25 °C for S. Infantis, 37 °C for other strains) or were directly cultivated to preform biofilms (18 h). For a positive control of bacterial growth, the inoculum was mixed with a pure sterile medium. Furthermore, the sterile medium was included in the plate as a marker of potential microbial contamination. To evaluate planktonic cells growth (MICPC80) and further growth of biofilm cells (MICBC80), the optical density of the content of the microtiter plates was measured spectrophotometrically at 625 nm before and after 24 h (for biofilm formation) of cultivation or before and after additional 20 h incubation with the tested compound (for preformed biofilm). The difference of A625nm was considered as a measure of the ability of cells to grow in the presence of the tested substances. To evaluate the inhibition of biofilm formation (MICBF80) and reduction in preformed biofilms (MICBR80), biomass was quantified using crystal violet staining, and its metabolic activity (MICBM80 and MICMPB80) was estimated by using the MTT (thiazyl tetrazolium bromide, Sigma-Aldrich, USA) reduction assay, both measured spectrophotometrically at 595 nm.
as §3, §4

Experiment [4] has as its system S. aureus 1241. Put plainly: MIC for metabolic activity of preformed biofilm (MTT reduction assay). In kind it is cell-based, Staphylococcus aureus. Conditions: ≥80% inhibition, 20 h with substance. On the procedure:
as §1, §5, §3, §4

The test system of experiment [5] is S. aureus 816. The description is as above. Format: cell-based, Staphylococcus aureus. The following applies: for MICMPB80: ≥80% inhibition, 20 h with substance. On the procedure: as §1, §5, §3, §4
In experiment [6] the test system is L. monocytogenes 149. Put plainly: CLSM analysis, biofilm removal (preformed biofilm). In kind it is cell-based, Listeria monocytogenes. Conditions: 20 h exposure, mean ± SD; for Thickness (µm) MICBM80: substance at its MIC; for Thickness (µm) subCBM80: substance at subinhibitory concentration. On the procedure: (§6) Biofilm prevention and removal analyses were performed using previously determined minimum inhibitory and subinhibitory concentrations for metabolic activity (MICBM80, subCBM80; MICMPB80, subCMPB80) of NAC, RLs, and UA specific for each tested strain. Selected concentrations were used to evaluate the inhibition of biofilm formation (biofilm prevention) and the reduction in previously formed biofilms (biofilm removal) for the same set of microorganisms, with the exception of S. Infantis, which was excluded from the analysis due to its inability to form biofilm in the selected microtiter plate. Biofilm prevention and removal were observed using CLSM with specific staining to distinguish between live and membrane-compromised cells. Images were analyzed to evaluate (i). the total volume of the biomass, (ii). ratios of live and membrane-compromised cells, and (iii). to calculate biofilm volume reduction for individual organisms after the respective treatment types. The total biofilm volume was normalized by the area of the well and expressed as an average biofilm thickness. Complete data are provided in Supplementary Materials (Tables S1–S8).
(§7) At first, bacterial suspensions were cultivated in microtiter plates to produce overnight biofilms (18 h). […] cells were then washed out, and the remaining biofilms were further cultivated for an additional 20 h with selected compounds. Following biofilm cultivation, biomass was observed using CLSM with live/membrane-compromised cell staining. Biomass images from biofilm removal treatments were similar to results from biofilm prevention, where biomass was highly diversified across the bacterial species and strains. Visually, biomass images were fairly consistent within the quadruplicates for each tested organism. Non-treated biofilms of S. aureus contained consistent biomass spread across the well (S. aureus 816) or grown around the edges (S. aureus 1241). […] PI staining identified membrane-compromised cells spread across S. aureus 816 biomass and incorporated in the edge of biomass and/or in the central part of the well (Figure 4B,C). […] Membrane-compromised cells appeared contained around the edges (S. aureus 1241), disturbed across the well (in both strains of L. monocytogenes), or in separated biomass in the central part of the well (in both strains of E. coli when treated with the subinhibitory concentration of RLs) (Figure 4D,E).
(§8) For both inhibition and reduction of biofilms, overnight cultures from BHI were diluted in TSB + 1% Glc to reach an absorbance of 0.08 to 0.1 at 625 nm. The inoculum (150 µL) was transferred into wells of the 96-well flat-bottomed Ibidiμ-Plate (Ibidi, Gräfelfing, Germany) and mixed with 150 µL of each of the three tested substances in technical quadruplicates, followed by incubation at 37 °C for 24 h. Simultaneously, the prepared bacterial suspensions were inoculated to an additional microtiter plate (200 µL) and allowed to form biofilm overnight (18 h at 37 °C). After the incubation, the content of the well was drained off, and 200 µL of each of the three tested substances was added to the plate, which was then incubated for an additional 20 h. The used concentrations of the substances represented the subinhibitory and minimum inhibitory concentrations for metabolic activity (subCBM80, MICBM80; subCMPB80, MICMPB80). Both setups contained a positive control of the bacterial growth (inoculum mixed with sterile TSB + 1% Glc medium) and a control monitoring microbial contamination (sterile medium). Non-treated wells were used as a positive control for comparison between non-treated and treated biofilm mass.
(§9) Prior to the imaging, the wells were stained with the LIVE/DEAD® BacLight™ Bacterial Viability Kit (Thermo Fisher Scientific, MA, USA) following the manufacturer’s guidelines and Drago et al.. […]

Experiment [7] concerns L. monocytogenes 164. Put plainly: CLSM analysis, biofilm removal (preformed biofilm). Conditions: for Thickness (µm) MICBM80: substance at its MIC. In kind it is cell-based, Listeria monocytogenes. On the procedure:
as §6, §7, §8, §9

Where [8] appears, read: preformed biofilm, 20 h exposure, mean ± SD.

Turning to `CC(=O)c1c(O)c(C)c(O)c2c1OC1=CC(=O)C(C(C)=O)C(=O)C12C` (single isomer, unassigned; (+)) [UA, (+)-usnic acid], the results for the MICPC80 in experiment [1], in experiment [2] and in experiment [3] were 0.98 µg/mL, 1.96 µg/mL and more than 31.3 µg/mL, respectively. For the same compound, in experiment [3] (within tested concentrations), the “maximal achieved inhibition (MICPC80 not reached)” value turned out to be 20%. Further, the MICMPB80 in experiment [4] is recorded as 3.91 µg/mL; in experiment [5], more than 31.3 µg/mL. Moreover, the “maximal achieved inhibition (MICMPB80 not reached)” value in experiment [5] (within tested concentrations) was found to be 67%. In addition, the “Thickness (µm) MICBM80” value in experiment [6] was determined as 317 ± 62.3 µm; in experiment [7] (setting [8]) it was 440 ± 60.8 µm. In addition, the “Thickness (µm) subCBM80” value in experiment [6] was 276 ± 26.8 µm.

As to `CC(=O)N[C@@H](CS)C(=O)O` [NAC, N-Acetyl-L-cysteine], the MICPC80 in experiment [1] turned out to be 3130 µg/mL; in experiment [2] it was 6250 µg/mL; in experiment [3] it was 3130 µg/mL. For the same compound, the MICMPB80 in experiment [4] is on record as 6250 µg/mL; in experiment [5], 12,500 µg/mL. Also, the entries for the “Thickness (µm) MICBM80” value in experiment [6] and in experiment [7] (setting [8]) were 338 ± 85.7 µm and 345 ± 62 µm, respectively. The “Thickness (µm) subCBM80” value in experiment [6] came to 332 ± 51.2 µm; in experiment [7] (preformed biofilm, 20 h exposure, substance at subinhibitory concentration, mean ± SD), 335 ± 23.1 µm. Besides, the “proportion of membrane-compromised cells” value in experiment [7] (20 h, MIC and subinhibitory concentration) is reported as “up to 20%”.

These data come from PMC8583417, “Evaluation of the Antimicrobial Efficacy of N-Acetyl-L-Cysteine, Rhamnolipids, and Usnic Acid—Novel Approaches to Fight Food-Borne Pathogens” (International Journal of Molecular Sciences, 2021).
